Reference: patent publication US7030085B2, “Thiopeptide compounds” (Astellas Pharma INC, priority 2001, dated 2006)
In brackets after ≈: the same amount, converted by molar mass.

Legend:
[1] = system: Staphylococcus aureus CAY32001 (MRSA); experiment: MIC determination, standard method of the Chemotherapy Society of Japan; assay type: cell-based
Description: (§1) The minimal inhibitory concentration (MIC) of the compounds of the invention obtained in Example 1, QN3323A, QN3323-B, QN3323-Y1, thiocillin I, thiocillin II and micrococcin P2 against Staphylococcus aureus FDA209P (S. aureus), Staphylococcus epidermidis IID866 (S. epidezmidis), Enterococcus faecalis IID682 (E. Faecalis) and Enterococcus faecium CAY09—1 (E. faecium), as well as against drug-resistant bacteria, Staphylococcus aureus CAY32001 (MRSA) (S. aureus (MRSA)) and Enterococcus faecium CAY09—2 (VRE) (E. faecium (VRE)) was measured according to the standard method of the Chemotherapy Society of Japan (CHEMOTHERAPY, 1981, 29(1):76, revised minimal inhibitory concentration (MIC) determination method). The cells of S. aureus (MRSA) were incubated at 32° C.

[2] = system: Enterococcus faecium CAY09—2 (VRE); experiment: as above; assay type: cell-based
Description: as §1

[3] = system: Staphylococcus aureus Smith; experiment: Remedial effect for infected mouse model; assay type: in vivo; conditions: male ICR(CD-1) mice infected intraabdominally with S. aureus Smith; compound subcutaneous two hours after infection; observed 4 to 7 days after treatment; probit method
Method: Remedial Effect for Infected Mouse Model
The compounds of the invention, QN3323-A, QN3323-B, thiocillin I and thiocillin II were tested using an infected mouse model to determine the effectivness thereof. Concretely, cells of Staphylococcus aureus Smith cultivated for 16 hours at 37° C. were suspended in 3% butamutin (by Tokyo Kasei), and the resulting cell suspension was intraabdominally infected into 4-week old male ICR(CD-1) mice (from Charles River of Japan, SPF) (about 3×10^6 CFU/mouse). Two hours after the infection, the compound of the invention dissolved in a solvent (10% DMSO, 10% HCO-60 (by Nikko Chemicals), 80% physiological saline), was subcutaneously administered to each mouse. On 4 to 7 days after the treatment, the mice were observed, and their ED50 value was calculated according to probit method.

[4] = system: Enterococcus faecium CAY09—1; experiment: MIC determination, standard method of the Chemotherapy Society of Japan; assay type: cell-based
Description: as §1

[5] = system: Enterococcus faecalis IID682; experiment: as above; assay type: cell-based
Description: as §1

[6] = system: Staphylococcus aureus FDA209P; experiment: as above; assay type: cell-based
Description: as §1

[7] = system: Staphylococcus epidermidis IID866; experiment: as above; assay type: cell-based
Description: as §1

[8] = S. aureus CAY32001 (MRSA), incubated at 32° C.

| Structure (SMILES) | MIC [1, 8] [µg/mL] | MIC ([2]; E. faecium CAY09—2 (VRE)) [µg/mL] | ED5O [3] [mg/kg] | MIC [4] [µg/mL] | MIC [5] [µg/mL] | MIC ([1]; Staphylococcus aureus, MRSA) [µg/mL] | MIC [6] [µg/mL] | MIC ([2]; Enterococcus faecium, VRE) [µg/mL] | MIC [7] [µg/mL] |
| --- | --- | --- | --- | --- | --- | --- | --- | --- | --- |
| C/C=C(\NC(=O)c1csc(-c2csc(-c3ccc4c(n3)-c3csc(n3)[C@H]([C@@H](C)O)NC(=O)c3csc(n3)[C@H](C(C)C)NC(=O)c3csc(n3)/C(=C/C)NC(=O)[C@H]([C@@H](C)O)NC(=O)c3csc-4n3)n2)n1)C(=O)NCC(C)=O [Micrococcin P2, micrococcin P2] | 0.78 (≈ 0.683 µM) | 0.2 (≈ 0.175 µM) | – | – | – | – | – | – | – |
| C/C=C(\NC(=O)c1csc(-c2csc(-c3ccc4c(n3)-c3csc(n3)[C@H]([C@@H](C)O)NC(=O)c3csc(n3)[C@H](C(C)(C)O)NC(=O)c3csc(n3)/C(=C/C)NC(=O)[C@H]([C@@H](C)O)NC(=O)c3csc-4n3)n2)n1)C(=O)NC[C@@H](C)O [Thiocillin I, thiocillin I] | 0.78 (≈ 0.672 µM) | 0.78 (≈ 0.672 µM) | 1.4 | – | – | – | – | – | – |
| C/C=C(/NC(=O)c1csc(-c2csc(-c3ccc4c(n3)-c3csc(n3)C(C(C)OC)NC(=O)c3csc(n3)C(C(C)(C)O)NC(=O)c3csc(n3)/C(=C\C)NC(=O)C(C(C)O)NC(=O)c3csc-4n3)n2)n1)C(=O)NCC(C)O (centres unmarked) [Thiocillin II, thiocillin II] | 0.10 (≈ 0.0851 µM) | 0.05 (≈ 0.0426 µM) | 2.2 | – | – | – | – | – | – |
| C/C=C(\NC(=O)c1csc(-c2csc(-c3ccc4c(n3)-c3csc(n3)C(C(C)O)NC(=O)c3csc(n3)C(C(C)(C)O)NC(=O)c3csc(n3)/C(=C\C)NC(=O)C(C(C)O)NC(=O)c3csc-4n3)n2)n1)C(=O)NCC(C)O (centres unmarked) [QN3323-Y1] | – | – | – | 0.5 (≈ 0.431 µM) | 0.5 (≈ 0.431 µM) | 2 (≈ 1.72 µM) | 0.25 (≈ 0.215 µM) | 0.25 (≈ 0.215 µM) | 0.25 (≈ 0.215 µM) |
